The values below come from PubChem BioAssay (NCI).

Some test systems named below: A498 renal; SK-MEL-5 melanoma; SF-295 CNS; PC-3 prostate; OVCAR-3 ovarian; BT-549 breast; HCT-15 colon; HCC-2998 colon; RPMI-8226 leukemia; 786-0 renal; U251 CNS; LOX IMVI melanoma; HOP-92 NSCLC.
Experiment in all cases: NCI anticancer screen, dose series, 48 h

Structures are written as SMILES.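 Following 48 hours of exposure in 96-well plates, responses at five concentrations were used to interpolate endpoints linearly. At the TGI there is no net growth.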 Some results are limits rather than exact numbers.

With `Cc1ccc2c(c1)C(=O)c1nc(C)ccc1C2=O`, the TGI in the test on A498 renal is more than 100 µM; with SK-MEL-5 melanoma, 19.7 µM; with SF-295 CNS it was more than 100 µM; with PC-3 prostate, more than 100 µM; in the test on OVCAR-3 ovarian it was more than 100 µM; with BT-549 breast, more than 100 µM. In addition, the TGI is 48.1 µM in the test on HCT-15 colon; 87.8 µM in the test with HCC-2998 colon; 74.1 µM with RPMI-8226 leukemia; more than 100 µM in the test with 786-0 renal; more than 100 µM in the test on U251 CNS; more than 100 µM with LOX IMVI melanoma.
In the case of `Cc1nc(CC#N)n[nH]1`, the TGI in the test on SK-MEL-5 melanoma, in the test on SF-295 CNS, in the test on PC-3 prostate, in the test with HOP-92 NSCLC, with OVCAR-3 ovarian and with BT-549 breast was more than 100 µM each time. In addition, the TGI with HCT-15 colon, in the test with HCC-2998 colon, in the test with RPMI-8226 leukemia, in the test on 786-0 renal, in the test on U251 CNS and with LOX IMVI melanoma was more than 100 µM throughout.
Regarding `COC(=O)C1Cc2cc3c(cc2C1=O)CCCC3` (stereo unspecified), the TGI in the test on A498 renal, with SK-MEL-5 melanoma, with SF-295 CNS, in the test with PC-3 prostate, in the test with OVCAR-3 ovarian and in the test with BT-549 breast was more than 100 µM each time. For the same compound, the TGI with HCT-15 colon, with HCC-2998 colon, with RPMI-8226 leukemia, in the test on 786-0 renal, in the test on U251 CNS and in the test with LOX IMVI melanoma was more than 100 µM throughout.
As to `Cc1cnc2sn(-c3ccc([N+](=O)[O-])cc3)c(=O)c2c1`, the TGI with SK-MEL-5 melanoma, in the test on SF-295 CNS, with PC-3 prostate, in the test with HOP-92 NSCLC, in the test on OVCAR-3 ovarian and in the test on BT-549 breast was more than 100 µM in each case. Also, the TGI in the test with HCT-15 colon, in the test on HCC-2998 colon, with RPMI-8226 leukemia, with 786-0 renal, in the test with U251 CNS and with LOX IMVI melanoma was more than 100 µM each time.
Turning to `O=C(/C=C/c1ccc(-c2ccccc2)cc1)NCc1ccc(C(=O)NCc2ccccc2)cc1`, the TGI with A498 renal, in the test with SK-MEL-5 melanoma, with SF-295 CNS, in the test with PC-3 prostate, in the test with HOP-92 NSCLC and in the test with OVCAR-3 ovarian was more than 100 µM in each case. Further, the TGI in the test with BT-549 breast, in the test with HCT-15 colon, in the test with HCC-2998 colon, in the test on 786-0 renal, in the test with U251 CNS and in the test with LOX IMVI melanoma was more than 100 µM throughout.
With `COC(=O)CCC1=C(CC(=O)OC)C(C)(OC)N=C1NC(=O)OCc1ccccc1` (stereo unspecified), the TGI in the test on A498 renal, in the test with SK-MEL-5 melanoma, in the test on SF-295 CNS, in the test with PC-3 prostate, in the test on BT-549 breast and in the test with HCT-15 colon was more than 100 µM each time. Moreover, the TGI with HCC-2998 colon, in the test with RPMI-8226 leukemia, with 786-0 renal, with U251 CNS and with LOX IMVI melanoma was more than 100 µM throughout.
In the case of `O=C(O)Cc1ccc(Nc2nc3cc(C(F)(F)F)ccc3nc2C(=O)O)cc1`, the TGI in the test with A498 renal, with SK-MEL-5 melanoma, with SF-295 CNS, in the test with PC-3 prostate, in the test on HOP-92 NSCLC and in the test on OVCAR-3 ovarian was more than 100 µM throughout. Further, the TGI with BT-549 breast, with HCT-15 colon, with 786-0 renal, with U251 CNS and in the test with LOX IMVI melanoma was more than 100 µM throughout.
Consider `Cc1ccc(/C=N/n2c(-c3ccc(C)cc3)n[nH]c2=O)cc1`, for which the TGI is 95.1 µM in the test on A498 renal; more than 100 µM in the test on SK-MEL-5 melanoma; more than 100 µM with SF-295 CNS; more than 100 µM in the test with PC-3 prostate; more than 100 µM with HOP-92 NSCLC; more than 100 µM in the test with OVCAR-3 ovarian. Further, the TGI in the test with BT-549 breast, in the test on HCT-15 colon, with HCC-2998 colon, with RPMI-8226 leukemia, in the test on 786-0 renal and in the test with U251 CNS was more than 100 µM in each case.
As for `CC(NC(=O)NC(C)(C)C)NC(=O)C(N)CC(=O)O` (stereo unspecified), the TGI with A498 renal, in the test on SK-MEL-5 melanoma, in the test on SF-295 CNS, in the test on PC-3 prostate, in the test with HOP-92 NSCLC and in the test on OVCAR-3 ovarian was more than 100 µM throughout. For the same compound, the TGI with BT-549 breast, in the test with HCT-15 colon, in the test with RPMI-8226 leukemia, in the test with 786-0 renal, in the test with U251 CNS and in the test with LOX IMVI melanoma was more than 100 µM throughout.
Consider `O=C1C(Br)=C(c2ccccc2)O/C1=C/C(=O)c1ccc(Br)cc1`, for which the TGI with A498 renal was more than 100 µM; in the test with SK-MEL-5 melanoma, more than 100 µM; with PC-3 prostate it was 53.3 µM; in the test with HOP-92 NSCLC, more than 100 µM; with OVCAR-3 ovarian, more than 100 µM; in the test with BT-549 breast, 25.5 µM. The TGI is more than 100 µM in the test on HCT-15 colon; more than 100 µM in the test on HCC-2998 colon; 62.7 µM in the test with RPMI-8226 leukemia; 47 µM in the test with 786-0 renal; more than 100 µM with U251 CNS.
As to `O=C(O)C(O)C(O)C(=O)O` (stereo unspecified), the TGI with A498 renal, in the test on SK-MEL-5 melanoma, in the test with SF-295 CNS, in the test on PC-3 prostate, in the test with HOP-92 NSCLC and with OVCAR-3 ovarian was more than 100 µM each time. The TGI in the test with BT-549 breast, with HCT-15 colon, with RPMI-8226 leukemia, in the test with 786-0 renal, in the test with U251 CNS and in the test with LOX IMVI melanoma was more than 100 µM throughout.
`CC(C)(C)OC(=O)N(CCCCNC(=O)OCc1ccccc1)CCCNC(=O)OCc1ccccc1`: the TGI in the test with A498 renal was more than 100 µM; in the test on SK-MEL-5 melanoma, 22.5 µM; in the test with SF-295 CNS it was more than 100 µM; with PC-3 prostate, more than 100 µM; with HOP-92 NSCLC, 99.1 µM; in the test with OVCAR-3 ovarian, more than 100 µM. Also, the TGI with BT-549 breast, in the test with HCT-15 colon, in the test with HCC-2998 colon, in the test with RPMI-8226 leukemia, in the test with 786-0 renal and in the test on U251 CNS was more than 100 µM each time.
As for `CC1(C)OC2[C@@H](CO[C@@]3([C@@H](O)CCO)OC(C)(C)O[C@@H]23)O1` (stereo partly specified), the TGI with SK-MEL-5 melanoma, in the test with SF-295 CNS, with PC-3 prostate, in the test with HOP-92 NSCLC, with OVCAR-3 ovarian and in the test with BT-549 breast was more than 100 µM in each case. The TGI in the test on HCT-15 colon, in the test with HCC-2998 colon, with RPMI-8226 leukemia, in the test with 786-0 renal, with U251 CNS and in the test on LOX IMVI melanoma was more than 100 µM throughout.
As to `Cc1ccc(SC2C(=O)C3CC(OCc4ccccc4)C2(C)C3(C)C)cc1` (stereo unspecified), the TGI with A498 renal, in the test with SK-MEL-5 melanoma, with SF-295 CNS, with PC-3 prostate, in the test on HOP-92 NSCLC and in the test with OVCAR-3 ovarian was more than 100 µM throughout. Further, the TGI in the test on BT-549 breast, in the test with HCT-15 colon, with HCC-2998 colon, in the test with 786-0 renal and with U251 CNS was more than 100 µM throughout.
Regarding `O=C1c2ccccc2C(=O)c2cc(N=Nc3c(O)ccc4ccccc34)ccc21`, the TGI in the test on A498 renal, in the test on SK-MEL-5 melanoma, in the test with SF-295 CNS, in the test with PC-3 prostate, with HOP-92 NSCLC and with OVCAR-3 ovarian was more than 100 µM each time. Moreover, the TGI in the test on BT-549 breast, in the test with HCT-15 colon, in the test with RPMI-8226 leukemia, in the test with 786-0 renal, in the test with U251 CNS and in the test with LOX IMVI melanoma was more than 100 µM throughout.
For the compound `O=C1c2cc(Cl)ccc2NC(=NC2CCCC2)C2CSCN12` (stereo unspecified), the TGI with A498 renal, in the test with SK-MEL-5 melanoma, with SF-295 CNS, in the test on PC-3 prostate, in the test on OVCAR-3 ovarian and in the test on BT-549 breast was more than 100 µM each time. Also, the TGI with HCT-15 colon, in the test with HCC-2998 colon, in the test on RPMI-8226 leukemia, with 786-0 renal, in the test with U251 CNS and in the test on LOX IMVI melanoma was more than 100 µM in each case.
As for `C/C(=N\N=C(\N)SB(F)F)c1ccc2ccccc2c1`, the TGI in the test with A498 renal, in the test on SK-MEL-5 melanoma, in the test on SF-295 CNS, in the test with PC-3 prostate, with HOP-92 NSCLC and with BT-549 breast was more than 100 µM throughout. For the same compound, the TGI in the test on HCT-15 colon, in the test on HCC-2998 colon, in the test with 786-0 renal, in the test on U251 CNS and in the test with LOX IMVI melanoma was more than 100 µM each time.
`[N-]=[N+]=NC1OC(=O)C(Cl)=C1N=P(c1ccccc1)(c1ccccc1)c1ccccc1` (stereo unspecified): the TGI in the test on A498 renal, with SK-MEL-5 melanoma, in the test with SF-295 CNS, in the test on PC-3 prostate, in the test with OVCAR-3 ovarian and in the test with BT-549 breast was more than 10 µM each time. The TGI is more than 10 µM in the test on HCT-15 colon; more than 10 µM with HCC-2998 colon; 8.33 µM in the test with RPMI-8226 leukemia; more than 10 µM in the test on 786-0 renal; more than 10 µM in the test on U251 CNS; more than 10 µM with LOX IMVI melanoma.
